Key:
[1] = Log P measurement by HPLC on reversed phase columns (EEC directive 79/831 Annex V.A8; methods [a], [b], [c]); format: physicochemical
Protocol: If more than one Log P value is available within the same method, all the values are given and separated by “+”. […] Lambda-max-values were determined using UV-spectra from 200 nm to 400 nm and the peak values of the chromatographic signals.

[2] = system: soy bean plants; assay: Plant compatibility test using soy bean plants; format: in vivo; conditions: soy bean young plants sprayed, rate of application of active compound 500 ppm, evaluated 6 days after application; 0% = no damages, 100% = plants totally damaged
Protocol: Plant Compatibility Test Using Soy Bean Plants
Solvent: 24.5 parts by weight of acetone • 24.5 parts by weight of dimethylacetamide Emulsifier: 1 part by weight of alkylaryl polyglycol ether
To produce a suitable preparation of active compound, 1 part by weight of active compound is mixed with the stated amounts of solvent and emulsifier, and the concentrate is diluted with water to the desired concentration. Young plants are sprayed with the preparation of active compound at the stated application rate. The plants are then placed in a greenhouse at approximately 21° C. and a relative atmospheric humidity of approximately 80%. The test is evaluated 6 days after application and comprises plant damages like leaf deformation, chlorosis, necrosis, shoot damage or stunting. 0% means no damages are observed, while 100% means that the plants are totally damaged.

[3] = method [a]: LC-UV, acidic range, 0.1% formic acid in water and acetonitrile as eluent

| LogP ([1]; method [b]: LC-UV, neutral range, 0.001 molar ammonium acetate solution in water and acetonitrile as eluent) | LogP ([1]; method [a]: LC-UV, acidic range, 0.1% formic acid in water and acetonitrile as eluent (linear gradient 10% to 95% acetonitrile)) | SMILES | LogP [1, 3] | Necrosis in % [2] [%] |
| --- | --- | --- | --- | --- |
| 5.01^[b] | – | CCN(C)C=Nc1cc(I)c(Oc2ccccc2)cc1C [Example 30] | 1.69^[a]; | 50 |
| – | 1.48^[a] | Cc1cc(Oc2ccccc2C#N)c(C)cc1N=CN(C)C(C)C [Example 71] | – | 5 |
| – | – | CCN(C)C=Nc1cc(C)c(Oc2ccc(F)cc2)cc1Cl [Example 9] | 1.47^[a] | 5 |
| – | – | CCN(C)C=Nc1cc(Cl)c(Oc2cccc(F)c2)cc1C [Example 12] | 1.75^[a] | 5 |
| – | – | CCN(C)C=Nc1cc(Cl)c(Oc2cccc(Cl)c2)cc1C [Example 48] | 1.83^[a] | 30 |
| – | – | CCN(C)C=Nc1cc(I)c(Oc2ccccc2C#N)cc1C [Example 56] | 1.37^[a] | 10 |

From US20200077648A1, “PHENOXYPHENYLAMIDINES AND THE USE THEREOF AS FUNGICIDES” (priority 2016, published 2020)
